Test results as given in US20170281611A1, “QUINOLINES AND THEIR USE FOR TREATING ENDOPLASMIC RETICULUM STRESS-CAUSED DISEASES” (EIGER BIOPHARMACEUTICALS, INC., priority 2014, published 2017).
Where two headings read alike, the source gives them in different places.

Assays:
[1] = test system: CSM14.1 cells; assay: ER stress cell survival assay (thapsigargin, […]-GLO); type: cell-based; settings: dose-response
Experimental: CSM14.1 cells were maintained in Complete Medium at 32° C.; wherein the Complete Medium contained Dulbecco's modified eagle medium (DMEM) with 10% fetal bovine serum (FSB), 1% L-glutamine, 100 IU/mL penicillin, and 100 μg/mL streptomycin. The cells were recovered from cultures by trypsinization and then seeded in 384 well plates (Greiner #781098) at a concentration of 1,000 cells/well in 20 μL of DMEM Assay Medium, wherein the DMEM Assay Medium contained 2% FBS, 100 IU/mL penicillin, and 100 μg/mL streptomycin. Seeding was performed using a MultiDrop Combi reagent broadcaster. The plates were incubated overnight at 32° C.
A test compound was prepared by 2-fold serial dilution in 100% DMSO using a BIOMEK® 2000 liquid handler (Beckman Coulter). A dose-response curve containing 10 concentrations of the test compound was obtained. Using a BIOMEK® FX liquid handler (Beckman Coulter), 2.5 μL of the test compound was transferred from the 100% DMSO serial dilution plate to an intermediate plate containing 47.5 μL of DMEM Assay Medium containing 2% FBS, 100 IU/mL penicillin, and 100 μg/mL streptomycin and mixed. To reduce or eliminate the interference from the compound's precipitation, 6 μL of the diluted compound was immediately transferred to the assay plate to achieve a high compound concentration of 100 μM in 99% DMEM Assay Medium and 1% DMSO. After the assay plates were incubated for 2 hrs, 4 μL of 112.5 μM thapsigargin (TG) (DMSO stock diluted into Assay TC Medium) was dispensed into each testing well with a MultiDrop Combi reagent broadcaster for a final concentration of about 15 μM TG. The tissue culture media (4 μL) containing vehicle only was transferred manually to each control cell using a 16 channel electronic pipette. […] High luminescence indicates cell survival.
Alternatively, a test compound was tested at a single compound concentration (e.g., 2 μM) to determine the effect of the compound on cell survival in comparison with vehicle.

[2] = target: T1, SERCA, cardiac SR; assay: Activation of SERCA, NADH-linked enzyme-coupled ATPase assay, cardiac SR; type: biochemical; settings: read-out: CSR EC50
T1 construct: 2 mg or 7 mg of SR vesicles (optimized for skeletal or cardiac SR, respectively); from tissue; host or cells: cardiac sarcoplasmic reticulum vesicles
Experimental: Test compounds were characterized over a range of concentrations using an NADH-linked, enzyme-coupled ATPase assay. Each well contained 2 mg or 7 mg of SR vesicles (optimized for skeletal or cardiac SR, respectively), 50 mM MOPS (pH 7.0), 100 mM KCl, 5 mM MgCl2, 1 mM EGTA, 0.2 mM NADH, 1 mM phosphoenol pyruvate, 5 IU pyruvate kinase, 5 IU lactate dehydrogenase, and 3.5 mg/mL A23187 (a calcium ionophore), and CaCl2 was added to set free [Ca2+] to the specific values. The assay was started upon addition of ATP at a final concentration of 5 mM, and read in a SpectraMax Plus microplate spectrophotometer and the ATPase activities were fitted using the Hill function.

[3] = test system: SERCA; assay: Activation of SERCA, increase in Vmax (SR type not given); type: biochemical
[4] = Pharmacokinetics in Sprague Dawley rats (Table 4); type: in vivo; settings: rat; for AUC(0-inf) / AUC(0-t) / Cmax / Tmax / clearance / half-life / MRT inf / Vd: Sprague Dawley, in vivo; for MRT inf: read-out: MRT0-∞; for Vd: read-out: Vz; for F: PO (10 mg/kg) vs IV (2 mg/kg)
Description: Compound D1 was formulated in 0.3% DMA/1% SOLUTOL®/98.7% saline. Compound D6 was formulated in 0.5% DMA/1% SOLUTOL®/94.5% 0.01N HCl in saline/4% NaOH (pH 4-5).

[5] = Pharmacokinetics in Beagle dogs (Table 5); type: in vivo; settings: dog; for MRT inf: read-out: MRT0-∞
Experimental: For pharmacokinetic evaluation, 3 male Beagle dogs were intravenously (IV) dosed (1 mg/kg body weight) and 3 male Beagle dogs were orally (PO) dosed (10 mg/kg body weight) with a test compound. Blood (approximately 1.0 mL) was collected via femoral vein into tubes containing K3EDTA anticoagulant at 0, 0.017, 0.083, 0.5, 1, 2, 4, 6, 8, and 24 hours post-dosing. Plasma samples were analyzed by LC-MS/MS. The analytical results were confirmed using quality control samples for intra-assay variation. The accuracy of >66% of the quality control samples was between 80-120% of the known value(s). A standard set of pharmacokinetic parameters were generated from concentration data including Area Under the Curve (AUC0-t and AUC0-inf), elimination half-lives, clearances, volume of distribution and bioavailabilities (based on AUC0-t), maximum plasma concentration (C0; Cmax), and time to reach maximum plasma concentration (Tmax).

[6] = test system: BT474 Cells; assay: In vitro anticancer activity, monolayers (2D) and spheroids (3D), BT474; type: cell-based; settings: Homo sapiens
Experimental: (§1) The anticancer activity of a test compound was determined in vitro using mammalian tumor cells that grew as monolayers and spheroids. Spheroids represent the three-dimensional growth and organization of solid tumors, and thus are an intermediate model between monolayers of cells in culture and tumors in vivo. The cancer cell line tested was a breast cancer cell line, BT474. Normal breast tissue cells (MCF10A) were used as a control. The viability/proliferation of the cells were measured using […]-GLO® reagent.

[7] = test system: MCF10A Cells; assay: In vitro viability, monolayers (2D) and spheroids (3D), normal breast tissue cells; type: cell-based; settings: Homo sapiens, MCF-10A
Experimental: as §1

[8] = test system: human foreskin fibroblast (HFF) cells; assay: Toxicity in human foreskin fibroblast cells; type: cell-based; settings: 100 μM
[9] = male, Beagle, plasma, IV (1 mg/kg)
[10] = male, Beagle, plasma, PO (10 mg/kg)

T1 sequence (P16615 1-997 isoform P16615-2): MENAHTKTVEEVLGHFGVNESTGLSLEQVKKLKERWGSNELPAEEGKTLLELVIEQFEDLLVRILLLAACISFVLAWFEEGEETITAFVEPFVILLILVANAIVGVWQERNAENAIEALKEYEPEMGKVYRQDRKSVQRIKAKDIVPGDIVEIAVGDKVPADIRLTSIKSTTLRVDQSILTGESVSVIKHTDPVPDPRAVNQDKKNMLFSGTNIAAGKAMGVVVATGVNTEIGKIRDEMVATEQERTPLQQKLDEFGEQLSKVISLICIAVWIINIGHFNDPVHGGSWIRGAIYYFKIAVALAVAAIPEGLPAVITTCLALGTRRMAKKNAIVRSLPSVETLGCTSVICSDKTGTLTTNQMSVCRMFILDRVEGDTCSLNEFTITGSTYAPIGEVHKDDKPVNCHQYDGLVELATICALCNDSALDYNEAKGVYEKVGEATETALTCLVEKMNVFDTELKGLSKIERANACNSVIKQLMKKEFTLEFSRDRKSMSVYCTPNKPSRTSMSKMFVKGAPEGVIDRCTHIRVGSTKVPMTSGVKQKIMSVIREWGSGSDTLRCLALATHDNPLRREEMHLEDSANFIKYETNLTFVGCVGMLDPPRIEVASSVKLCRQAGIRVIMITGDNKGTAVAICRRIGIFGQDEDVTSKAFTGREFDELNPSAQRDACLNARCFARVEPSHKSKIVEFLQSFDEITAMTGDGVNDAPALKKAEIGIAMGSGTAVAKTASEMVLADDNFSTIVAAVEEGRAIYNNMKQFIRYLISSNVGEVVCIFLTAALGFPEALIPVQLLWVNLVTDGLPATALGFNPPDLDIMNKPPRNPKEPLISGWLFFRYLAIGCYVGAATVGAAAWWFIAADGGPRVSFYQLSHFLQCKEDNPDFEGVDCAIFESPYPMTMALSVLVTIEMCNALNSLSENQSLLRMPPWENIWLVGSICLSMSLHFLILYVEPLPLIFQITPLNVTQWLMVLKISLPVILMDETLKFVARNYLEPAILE

Cc1ccc(C(=O)N2CCN(c3ccnc4cc(Cl)ccc34)CC2)cc1Cl [Compound D5, (3-Chloro-4-methylphenyl)(4-(7-chloroquinolin-4-yl)piperazin-1-yl)methanone]
EC50 [1]: < 20 µM

O=C(c1cccc(Cl)c1)N1CCN(c2ccnc3cc(Cl)ccc23)CC1 [Compound D3, (3-Chlorophenyl)(4-(7-chloroquinolin-4-yl)piperazin-1-yl)methanone]
EC50 [1]: 20 to 100 µM

Cc1ccc2cccc(NC(=O)c3ccc(C(C)(C)C)cc3)c2n1 [Compound A4, 4-(tert-Butyl)-N-(2-methylquinolin-8-yl)benzamide]
EC50 [2]: < 20 µM

Cc1ccc(C(=O)N2CCN(c3ccnc4cc(Cl)ccc34)CC2)cc1 [Compound D4, (4-(7-Chloroquinolin-4-yl)piperazin-1-yl)(p-tolyl)methanone]
EC50 [1]: 20 to 100 µM

CCNc1ccc(C(=O)Nc2cccc3ccc(C)nc23)cc1 [Compound J1, 4-(Ethylamino)-N-(2-methylquinolin-8-yl)benzamide]
EC50 [1]: < 20 µM
Increase in Vmax at 10 μM [3]: A′ (A′ represents an increase greater than 50%)

O=C(c1ccccc1)N1CCN(c2ccnc3cc(Cl)ccc23)CC1 [Compound D1, (4-(7-Chloroquinolin-4-yl)piperazin-1-yl)(phenyl)methanone]
EC50 [1]: 20 to 100 µM
AUC(0-inf) ([4]; IV (2 mg/kg)): 5900 ± 454 ng·h/mL
AUC(0-t) ([4]; IV (2 mg/kg)): 5880 ± 453 ng·h/mL
Cmax ([4]; IV (2 mg/kg)): 18.6 ± 1.33 µM
Tmax ([4]; IV (2 mg/kg)): 0.02 h
clearance ([4]; IV (2 mg/kg)): 5.67 mL/min/kg
half-life ([4]; IV (2 mg/kg)): 3.21 ± 0.39 h
MRT inf ([4]; IV (2 mg/kg)): 2.98 ± 0.17 h
Vd ([4]; IV (2 mg/kg)): 1.57 ± 0.2 L/kg
AUC(0-inf) ([4]; PO (10 mg/kg)): 162000 ± 11900 ng·h/mL
AUC(0-t) ([4]; PO (10 mg/kg)): 24600 ± 4100 ng·h/mL
Cmax ([4]; PO (10 mg/kg)): 15.3 ± 3.86 µM
Tmax ([4]; PO (10 mg/kg)): 0.58 ± 0.38 h
half-life ([4]; PO (10 mg/kg)): 2.76 ± 0.69 h
MRT inf ([4]; PO (10 mg/kg)): 3.93 ± 0.41 h
F [4]: 84%

O=C(c1ccc(N2CCCC2)c([N+](=O)[O-])c1)N1CCN(c2ccnc3cc(Cl)ccc23)CC1 [Compound D6, (4-(7-Chloroquinolin-4-yl)piperazin-1-yl)(3-nitro-4-(pyrrolidin-1-yl)phenyl)methanone]
EC50 [1]: < 20 µM
AUC(0-inf) ([4]; IV (2 mg/kg)): 8640 ± 650 ng·h/mL
AUC(0-t) ([4]; IV (2 mg/kg)): 8600 ± 659 ng·h/mL
Cmax ([4]; IV (2 mg/kg)): 39.7 ± 1.06 µM
Tmax ([4]; IV (2 mg/kg)): 0.02 h
clearance ([4]; IV (2 mg/kg)): 3.83 mL/min/kg
half-life ([4]; IV (2 mg/kg)): 0.98 ± 0.13 h
MRT inf ([4]; IV (2 mg/kg)): 0.98 ± 0.09 h
Vd ([4]; IV (2 mg/kg)): 0.33 ± 0.03 L/kg
AUC(0-inf) ([4]; PO (10 mg/kg)): 21200 ± 1940 ng·h/mL
AUC(0-t) ([4]; PO (10 mg/kg)): 19900 ± 1510 ng·h/mL
Cmax ([4]; PO (10 mg/kg)): 13 ± 3.56 µM
Tmax ([4]; PO (10 mg/kg)): 0.42 ± 0.14 h
half-life ([4]; PO (10 mg/kg)): 1.79 ± 0.39 h
MRT inf ([4]; PO (10 mg/kg)): 2.96 ± 0.66 h
F [4]: 44%
F ([5]; PO (10 mg/kg) vs IV (1 mg/kg), based on AUC0-t): 82%
AUC(0-inf) [5, 9]: 14300 ± 2220 ng·h/mL
AUC(0-t) [5, 9]: 13900 ± 2100 ng·h/mL
Cmax [5, 9]: 12.7 ± 2.4 µM
Tmax [5, 9]: 0.02 h
clearance [5, 9]: 1.17 mL/min/kg
half-life [5, 9]: 4.8 ± 0.4 h
MRT inf [5, 9]: 5.6 ± 0.4 h
Vd ([5]; male, Beagle, plasma, IV (1 mg/kg), read-out: Vz): 0.49 ± 0.04 L/kg
AUC(0-inf) [5, 10]: 114000 ± 15500 ng·h/mL
AUC(0-t) [5, 10]: 110000 ± 15500 ng·h/mL
Cmax [5, 10]: 26.5 ± 1.9 µM
Tmax [5, 10]: 0.83 ± 0.29 h
half-life [5, 10]: 4.8 ± 0.6 h
MRT inf [5, 10]: 7 ± 0.3 h
IC50 ([6]; BT-474, monolayers (2D), read-out: IC50 (2D)): 5 µM
IC50 ([6]; BT-474, spheroids (3D), read-out: IC50 (3D)): 8 µM
IC50 ([7]; monolayers (2D), read-out: IC50 (2D)): > 50 µM
IC50 ([7]; spheroids (3D), read-out: IC50 (3D)): > 50 µM
toxicity in HFF cells [8]: no toxicity
